From patent US11464785B2, “Treatment of addiction and impulse-control disorders using PDE7 inhibitors” (priority 2010, dated 2022)

How the values were obtained:
[1] = test system: rat model of cocaine addiction; type: in vivo, rats
Description: PDE7 inhibitors and DRD1 agonists were next tested for their effect on cocaine priming-induced relapse. Rats were trained to self-administer cocaine, as above, and were then exposed to extinction conditions. Cocaine was replaced with saline solution. […] Rats were treated with vehicle or agent and ten minutes later were administered cocaine. Lever pressing was counted for one hour following cocaine administration. […] Once again, administration of PDE7 inhibitors and dopamine D1 agonist had very different results in cocaine addicted animals.

dopaminergic VTA neurons = assay: Whole-cell current clamp recordings from rat VTA horizontal slices; type: cell-based
Text: The reinforcing effects of nicotine are believed to result from its activation of dopaminergic neurons in the ventral tegmental area (VTA) (Pidoplichko V I et al., Nature 390:401-404 (1997); Liu L, et al., Nicotine persistently activates ventral tegmental area dopaminergic neurons via nicotinic acetylcholine receptors containing α4 and α6 subunits. Mol Pharmacol, 81(4):541-8 (2012)). The inventors sought to evaluate the anti-addictive potential of PDE7 inhibitors by studying their ability to modify basal and drug of abuse-induced changes in VTA dopamine activity by performing whole-cell current clamp recordings from rat VTA horizontal slices ex vivo. For this purpose nicotine was used as an example of drugs of abuse.
Dopaminergic neurons were identified by the presence of a large hyperpolarizing current. Johnson, S. W., et al., “Opioids excite dopamine neurons by hyperpolarization of local interneurons,”J. Neurosci 12:483-488 (1992).
An additional electrophysiology study was completed to evaluate the effect of the PDE7 inhibitor OMS182399 on VTA DA neuronal activity in the setting of cocaine, morphine or alcohol. The preparation of VTA slices was as described above in Example 8.
Drug-induced changes in firing rate were calculated by averaging the effects after drug administration (five minutes) and normalizing to the pre-drug baseline. All the numerical data are given as mean±s.e.m. Data were compared and analyzed by utilizing two-way ANOVA for repeated measures (treatment×time), or Student's t-test for repeated measures, when appropriate. Statistical analysis was performed by means of the GraphPad Prism program. The significance level was established at P<0.05.
The acute effect of OMS182399 was investigated on dopamine neurons of the VTA in a rat horizontal brain slice preparation containing the midbrain. Whole-cell current-clamp recordings were performed from VTA dopamine neurons.

open field activity = assay: Open field activity model; type: in vivo, wild type C57BL/6 mice; settings: C57BL/6 mice; SKF82958 1 mg/kg; FIG. 36
Description: In order to assess the ability of PDE7 inhibitors to enhance DRD1 signaling in vivo, the effects of the PDE7 inhibitor OMS182401 and the DRD1 agonist SKF82958, alone and in combination, were evaluated in an open field activity model using wild type C57BL/6 mice.

[2] = test system: rat model of cocaine addiction
Description: Cocaine hydrochloride (obtained from the National Institute on Drug Abuse, Bethesda, Md.) was dissolved in sterile physiological saline at a concentration of 0.25 mg/0.1 mL. Drug or vehicle solution was infused at a volume of 0.1 mL over 4 seconds. […] OMS182401 was given intraperitoneally.
Male Wistar rats weighing between 180 and 200 g at the time of arrival in the lab were used. The rats were housed in groups of three in a humidity—(45-55%) and temperature-controlled (22 degrees C.) vivarium on a 12 h: 12 h reverse light/dark cycle (on, 17:00; off, 05:00) with ad libitum access to food and water. Experiments were conducted during the dark phase of the light/dark cycle. One week after arrival, rats were subjected to surgery, and a silastic catheter was implanted into the right jugular vein. The experimental stations consisted of operant conditioning chambers (Med Associate Inc.) enclosed in sound-attenuating, ventilated environmental cubicles. Cocaine was delivered by a plastic tube connected to the catheter before the beginning of the session. […] An IBM-compatible computer controlled the delivery of fluids and recording of the behavioral data.
Cocaine self-administration training continued until a stable baseline of responding was reached (less than 10% variation for 3 consecutive days calculated for each single rat). At this point, drug testing began.
Rats were treated with PDE7 inhibitors (0.0, 0.3, 1.0 and 3.0 mg/kg) given i.p. 12 hours and 1 hour before the beginning of the self-administration session. […] A 3-day interval was allowed between drug testing. During these intervals, cocaine self-administration was continued to re-establish baseline lever responses.
Cocaine self-administration training continued until a stable baseline of responding was reached (less than 10% variation for 3 consecutive days calculated for each single rat). At this point, drug testing began. The animals were injected with vehicle or drug 15 minutes before the test session.
In order to test the effect of raising cAMP levels through activation of DRD1 on cocaine self-administration, the DRD1 agonist SKF82958 was administered i.p. to rats trained to self-administer cocaine. […] SKF82958 was administered at 1.0 mg/kg. […] The long-access model was not evaluated in this case.
Rats were surgically implanted with jugular catheters and allowed to recover for one week. Animals then underwent daily six-hour (long-access) training sessions in which each press of the active lever triggered delivery of 0.25 mg cocaine. After one week, the ratio was increased so that five lever presses were required to receive the same amount of cocaine. The animal training continued for about six weeks. […] Reinforced responses were assessed over two hour periods.

[3] = test system: rat model of cocaine addiction; settings: in vivo
binge eating model = assay: Stress-induced binge eating of highly palatable food (HPF); type: in vivo, female rats; settings: topiramate 60 mg/kg i.p.
Text: To mimic binge eating disorder in laboratory animals, a binge eating model was developed where binge eating is elicited by yo-yo dieting and stressful exposure to Highly Palatable Food (HPF). In this model, female rats are exposed to repeated cycles of restriction and a stressful procedure characterized by exposure of animals to HPF without the possibility of accessing it. This procedure elicits a selective increase of highly palatable food intake that is overconsumed during a very short period of time. As described below, using this model, endowed with significant predictive and face validity, the effect of PDE7 inhibitors on binge eating (one of the most significant forms of food addiction) was investigated.
Reinstatement of binge eating behavior has been obtained in experimental animals through a combination of repeated food restriction and stress. [Cifani et al, Psychopharmacology 204:113-125 (2009)]. For the present invention, stress-induced binge eating was tested as in Cifani.
Rats were housed in individual cages and were given chow and water ad libitum for two weeks prior to the experiment. […]
After one hour, animals were given HPF and ad libitum chow. Intake of HPF was measured after two hours.

[4] = test system: dopamine release in the nucleus accumbens; assay: In vivo microdialysis of dopamine release in the nucleus accumbens; design: species or system Male Wistar rats; settings: nicotine 0.4 mg/kg sc
Description: Male Wistar rats (Harlan, Italy) weighing 275-300 g were housed in groups of six per cage with standard food (Morini, Italy) and water ad libitum, for at least five days in the central animal room under constant temperature (23° C.), humidity (60%) and a 12 hour light/dark cycle (light from 8 a.m. to 8 p.m.).
Concentric dialysis probes with a dialysing portion of 1.5 mm were prepared with AN69 (acrylonitrile sodium methallyl sulfonate copolymer) dialysis fiber (310 μm o.d. 220 μm i.d. Hospal, Dasco, Italy), according to the method of De Luca et al. (2007). Rats were anaesthetized with chloral hydrate (400 mg/kg i.p.) and placed in a stereotaxic apparatus. The scalp was incised and the skull leveled between lambda and bregma. […] Samples from each of the NAc shell and core were taken every 10 or 20 minutes (depending on the experiments) and analyzed.
Dialysate samples (10 or 20 μl) were injected into an HPLC equipped with a reverse phase column (C8 3.5 um, Waters, Mildford, Mass., USA) and a coulometric detector (ESA, Coulochem II, Bedford, Mass.) to quantify DA. […]
NAc shell and core dialysate DA was monitored for at least three hours. […] Dialysate DA was monitored for at least three hours after nicotine treatment.

## Br.C=CCN1CCc2c(cc(O)c(O)c2Cl)C(c2ccccc2)C1 (racemic) [SKF82958, (±)-6-Chloro-7,8-dihydroxy-3-allyl-1-phenyl-2,3,4,5-tetrahydro-1H-3-benzazepine hydrobromide]
[1]; rat, in vivo
  behavior of treated animals in cocaine priming test: exhibited significantly abnormal behavior
[1]; rats, agent ten minutes before cocaine, lever pressing for one hour, FIGS. 13 and 14
  cocaine priming-induced lever pressing: significantly reduced lever pressing induced by cocaine priming
Dopaminergic VTA neurons; 30 nM OMS182401 alone or 1 uM SKF82958 alone
  nicotine-induced activation of VTA neurons, single agents at low concentration: ineffective
Dopaminergic VTA neurons; OMS182401, SKF82958 at 3.0 and 10.0 uM, FIG. 29A
  spontaneous firing rate of dopaminergic VTA neurons: a similar effect was observed
Open field activity
  open-field activity, single agents: stimulated open-field activity at 1 mg/kg
[2]; rat, in vivo, ip
  behavior of animals given the agent with cocaine: exhibited significantly abnormal behavior and were extremely aggressive
[2]; rats, 2-hour sessions, OMS182401 15 minutes before session (FIG. 3), SKF82958 1.0 mg/kg i.p. (FIG. 4)
  cocaine self-administration, short-access model: significantly reduced cocaine self-administration in the short-access model
[2]; rats, short-access, i.p.
  cocaine self-administration, first hour after treatment: a significant reduction in self-administration was observed at both doses
  cocaine self-administration, two hours after treatment: the trend of self-administration reduction was non-significant
[3]
  lever pressing when administered on its own (addictive properties): Neither agent caused increased lever pressing

## CCO [Ethanol]
Dopaminergic VTA neurons; Ethanol 100 mM, 5 min, n=6
  firing rate of VTA DA cells: 158.3±26.7 % of basal firing rate

## CC1(C)O[C@@H]2[C@@H](CO[C@@]3(COS(N)(=O)=O)OC(C)(C)O[C@@H]23)O1 [Topiramate]
Binge eating model; OMS182056 3 mg/kg i.p., p<0.05
  times of observation at which HPF intake was reduced, R+S group, highest dose: evident at all the times of observation
Binge eating model; rats, two hours, OMS182401 3.0 mg/kg i.p., OMS182056 1.0 and 3.0 mg/kg i.p., FIGS. 23D, 24D, 25D
  HPF intake, restricted and stressed (R+S) group: reduced HPF intake only in the R+S group

## COC(=O)[C@H]1[C@@H](OC(=O)c2ccccc2)C[C@@H]2CC[C@H]1N2C [cocaine]
Dopaminergic VTA neurons; cocaine 1 μM, 5 min, n=7
  firing rate of VTA DA cells: 36.4±9.1 % of basal firing rate

## CN1CC[C@]23c4c5ccc(O)c4O[C@H]2[C@@H](O)C=C[C@H]3[C@H]1C5 [morphine]
Dopaminergic VTA neurons; morphine, 3 min, n=7
  firing rate of VTA DA cells: 224.4±19.5 % of basal firing rate

## CN1CCC[C@H]1c1cccnc1 [nicotine]
[4]
  DA release in the NAc shell: increases DA release in the NAc shell
